{
  "source": "patent US20240408214A1",
  "about": "“NANOPARTICULATE MONOBENZONE FOR TREATING MELANOMA” (Northwestern University, priority 2021, published 2024)",
  "key": {"[1]": {"tested_on": "B16 melanoma cells", "experiment": "cells", "conditions": "Mus musculus, B16, 24 h, read-out: half-maximum cytotoxicity (IC50) concentration", "description": "FIG. 8. […] Free MBEH or lauroyl-MBEH-loaded liposomes were added to B16 melanoma cells in culture. After 24 h, the viability among the remaining cells was measured at different nanoparticle concentrations."}, "[2]": {"tested_on": "M14 melanoma cells", "experiment": "Change in viable cell numbers of M14 melanoma cells over the treatment period (FIG. 9)", "format": "cell-based", "conditions": "100 μM, 24 h, untreated cells gained 96% viable cells", "description": "FIG. 9. First panel: Single cell functional proteomics data indicates functional heterogeneity when comparing the effects of free and nanoparticulate MBEH on cellular functions among live cells. Adherent M14 melanoma cells were incubated for 24 h with 100 μM of free MBEH (a), nanoparticulate monobenzone with lauroyl MBEH-loaded liposomes (b), MBEH-loaded MOF nanoparticles (c) or vehicle alone (d) before being harvested and loaded into individual wells of the respective Isocode chips (˜30,000 cells/sample) to measure the presence of phosphorylated proteins among individual, live cells by IsoPlexis functional proteomics. […] The decreases in cell-proliferation pathways are even more than those observed in cells that have been exposed to the free MBEH. The individual phosphoproteins measured (results are shown for ˜300 live, single cells per group) are categorized as shown in the legend. The most profound effect on cell signaling was found in presence of long-tailed MBEH. Over the treatment period, untreated cells gained 96% viable cells, whereas cell numbers were reduced by 45, 29 and 1% respectively in response to the free drug, MBEH-loaded MOFs and liposomes loaded with lauroyl MBEH, respectively. Functional heterogeneity among treatments was driven by PARP, P-eIF4α and ribosomal P-S6. Second panel: Viability changes of M14 melanoma cells shown between 24-48 h of treatment. […]"}, "[3]": {"tested_on": "B16-F10 tumors", "experiment": "CD8 T cell infiltration in B16-F10 tumors of mice pretreated topically (FIG. 6)", "format": "in vivo, mouse", "conditions": "mice pretreated topically with 1.5 M MBEH vs without; n=3, p<0.01"}, "[4]": {"tested_on": "B16-F10 mouse melanoma cells", "experiment": "Tumor volumes in mice pretreated topically and challenged with B16-F10 cells (FIG. 1)", "format": "in vivo", "conditions": "1.5 M topical for 3 weeks before challenge with 5×10^5 B16-F10 cells; p<0.05"}, "[5]": {"tested_on": "TRP-1+ melanocytes in C57BL/6 skin", "experiment": "Detection of TRP-1+ melanocytes in topically treated mouse skin (FIG. 2)", "format": "in vivo", "conditions": "1.5 M topical for 6 weeks", "excerpt": "FIG. 2. Melanocytes are undetectable in mouse skin topically treated with MBEH. TRP-1^+ melanocytes (arrows) are detected in control animals but not in C57BL/6 skin treated with 1.5 M MBEH for 6 weeks."}, "[6]": {"tested_on": "Transfected HEK cells and B16-F10 melanoma cells", "experiment": "MTT cytotoxicity in HEK cells transfected with melanosomal enzymes and in B16-F10 cells (FIG. 3)", "format": "cell-based", "conditions": "250 μM, 24 h, MTT assay", "experimental": "Transfected HEK cells and B16-F10 melanoma cells were exposed to 250 μM of MBEH for 24 h before cytotoxicity was measured via MTT assay."}, "[7]": {"conditions": "cited from earlier work"}},
  "data": [
    {"smiles": "Oc1ccc(OCc2ccccc2)cc1", "note": "[MBEH, monobenzyl ether of hydroquinone]", "values": [
      {"measurement": "IC50", "setting": "[1]", "value": "~500", "unit": "µM"},
      {"measurement": "cell numbers reduced over the treatment period", "setting": "[2]", "value": 45, "unit": "%"},
      {"measurement": "number of cytotoxic (CD8) T cells in tumors, enhancement after exposure", "setting": "[3]", "value": 4.7, "unit": "fold"},
      {"measurement": "tumor growth (tumor volumes)", "setting": "[4]", "value": "prevents tumor growth"},
      {"measurement": "TRP-1+ melanocytes in skin", "setting": "[5]", "value": "undetectable"},
      {"measurement": "cytotoxicity mediated by melanosomal enzymes", "setting": "[6]", "value": "All enzymes but MART-1 can mediate cytotoxicity"},
      {"measurement": "solubility in water", "setting": "[7]", "value": "highly insoluble in water"}
    ]}
  ]
}
